# Literature values, collected in patent publication US20240342171A1, “DISCOVERY OF A F-ATP SYNTHASE INHIBITOR FOR THE TREATMENT OF MYCOBACTERIUM ABSCESSUS DISEASES” (priority 2021, published 2024).
# Tests used:
# [1] = tested on: M. abscessus; details: for mode of action against M. abscessus: background statement; for MIC of clinically used anti-M. abscessus drugs: Brown-Elliott et al. 2016
# [2] = mouse liver microsomes; Hotra et al. 2020
# [3] = Hotra et al. 2020
smiles,measurement,setting,value
"COc1nc2ccc(Br)cc2cc1[C@@H](c1ccccc1)[C@@](O)(CCN(C)C)c1cccc2ccccc12 [BDQ, bedaquiline]",mode of action against M. abscessus,[1],mostly bacteriostatic
"CC(C)/N=c1\cc2n(-c3ccc(Cl)cc3)c3ccccc3nc-2cc1Nc1ccc(Cl)cc1 [CFZ, clofazimine]",MIC50,[1]; Ferro et al. 2016,6.8 µM
same,mode of action against M. abscessus,[1],mostly bacteriostatic
CCNc1cc(C)nc(Nc2ccc(NC(=O)c3cccc(Br)c3)cc2)n1 [GaMF1],metabolic stability,[2],good metabolic stability
same,c log P,[3],4.37
COc1cc([C@](O)(CCN(C)C)[C@@H](c2cc3cc(Br)ccc3nc2OC)c2cc(OC)nc(OC)c2OC)cc(OC)n1 [TBAJ876],mode of action against M. abscessus,[1],mostly bacteriostatic
NCC[C@H](O)C(=O)N[C@@H]1C[C@H](N)[C@@H](O[C@H]2O[C@H](CN)[C@@H](O)[C@H](O)[C@H]2O)[C@H](O)[C@H]1O[C@H]1O[C@H](CO)[C@@H](O)[C@H](N)[C@H]1O [amikacin],MIC of clinically used anti-M. abscessus drugs,[1]; Ferro et al. 2016,55 µM
CO[C@@]1(NC(=O)Cc2cccs2)C(=O)N2C(C(=O)O)=C(COC(N)=O)CS[C@@H]21 [cefocetin],MIC50 of first line drugs,[1]; […],43 µM
CO[C@@]1(NC(=O)Cc2cccs2)C(=O)N2C(C(=O)O)=C(COC(N)=O)CS[C@@H]21 [cefoxitin],MIC of clinically used anti-M. abscessus drugs,[1]; Ferro et al. 2016,38 µM
CO[C@H]1/C=C/O[C@@]2(C)Oc3c(C)c(O)c4c(c3C2=O)C2=NC3(CCN(CC(C)C)CC3)NC2=C(NC(=O)/C(C)=C\C=C\[C@H](C)[C@H](O)[C@@H](C)[C@@H](O)[C@@H](C)[C@H](OC(C)=O)[C@@H]1C)C4=O [rifabutin],MIC,[1],1 to 4 µM
